Data set [1] in a line: in vitro. From the text: U937 cells (CRL-1593^TM) were isolated from human histiocytic lymphoma; Vero cells (CCL-81^TM) were derived from the kidney of the African green monkey, Cercopithecus aethiops; HepG2 (HB-8065^TM) cells were derived from human liver tissue, and CAD-R1 cells, a subclone, were derived from mouse neuronal cells. All cell lines were from American Type Culture Collection (Manassas, VA, USA), except CAD-R1 cells that were kindly donated by D. Chikaraishi and J. Wang (Department of Neurobiology, Duke University Medical Center, Durham, NC, USA). All cell lines were cultured in standard conditions at 37 °C, 5% CO2. U-937 cells were cultivated in RPMI 1640 medium supplemented with 10% fetal bovine serum (FBS) and antibiotics (penicillin 100 U/mL and streptomycin 0.1 mg/mL). Vero, HepG2 and CAD-R1 were cultivated in DMEM medium supplemented with 5% FBS and antibiotics.
(§1) Cytotoxic activity of rotenone and it derivatives on U-937, Vero, HepG2, […] and huMDM cells was evaluated in vitro using the MTT (3-(4,5-dimethylthiazol-2-yl)-2,5-diphenyltetrazolium bromide assay) as described previously. Cells were adjusted to 1 × 10^5 U-937 cells/mL, 2.5 × 10^5 Vero, HepG2 or CAD-R1 cells/mL and 5 × 10^5 huMDM cells/mL in RPMI 1640 supplemented with 10% SBF and the corresponding concentration of each compound. Six serial-based four-dilution concentrations from 200 to 0.19 μg/mL were tested. The amount of formazan produced by the viable cells was registered as optical densities (OD) obtained in an ELISA reader (Bio-Rad) at 570 nm. […] Additionally, hemolytic activity on huRBCs was assessed by the osmotic lysis method. In brief, O positive (O+) huRBCs were adjusted at 3% hematocrit saline solution and incubated in the presence of each compound (six serial four-fold dilutions from 200 to 0.19 µg/mL) at 37 °C. After 2 h, hemoglobin concentration in the supernatant was measured according to the OD obtained in an ELISA reader plate (Bio-Rad) at 570 nm. Cells exposed to saline solution with Triton X-100 were used as positive (lyses) controls, while unexposed cells were used as negative (viability) controls. Each compound and each concentration were assessed in triplicate in at least two separate experiments.
(§2) The percentage of viability (%V) was calculated using Equation 1, where the optical density (OD) of unexposed cells (negative control) corresponds to 100% of viability. In turn, mortality percentage corresponds to 100%–% viability: % Viability = (OD Exposed cells)/(OD Control cells) × 100(1)

The subject of data set [2] is intracellular amastigotes of Leishmania panamensis. Description: Leishmanicidal activity on intracellular amastigotes, flow cytometry (GFP). The class given is cell-based. To be noted: for Index of Selectivity huMDM: IS = LC50 in huMDM/EC50 for L. panamensis; for EC50: Leishmania panamensis, read-out: Biological activity CE50 Leishmanicidal. As to the method:
The leishmanicidal activity was tested on intracellular amastigotes of Leishmania panamensis by flow cytometry following the methodology previously described. Previously, huMDM were infected with promastigotes of L. panamensis transfected with the green fluorescent protein gene (MHOM/CO/87/UA140pIR-GFP) in a proportion of 35:1 (parasites:cells). Plates were incubated at 34 °C, 5% CO2, and after 3 h, cells were washed twice with phosphate buffer (PBS) and incubated again. After 24 h, the infected cells were exposed for 72 h to each concentration of the compounds. Cells were removed using trypsin/EDTA solution and washed twice with PBS by centrifuging 10 min at 1,100 rpm, 4 °C. Then, cells were analyzed in a flow cytometer (Cytomics FC 500MPL, Brea, CA, USA) by reading at 488-nm excitation, 525-nm emissions over an argon laser and counting 10,000 events. The percentage of infected cells was determined by dot plot analysis, while the parasitic load was calculated by the mean fluorescence intensity using histogram analysis. In parallel, cells incubated in medium alone were used as the controls of infection (negative control), and cells exposed to amphotericin B were used as controls of leishmanicidal activity (positive control). Each concentration was assessed in triplicate in at least two independent experiments.
Antileishmanial activity was determined according to the reduction of infected cells and their parasite load obtained for each experimental condition according to the fluorescence median intensity (FMI) emitted by the cytometer and using Equation 3, where the % of parasitemia in unexposed cells corresponds to 100% parasitemia. […] Results are expressed as the median effective concentration (EC50) calculated by probit analysis using the % of inhibition of infection: % parasitemia = (FMI Exposed cells)/(FMI unexposed cells) × 100(3)
(§3) The index of selectivity was calculated with the equation: IS = LC50/EC50.

Data set [3] deals with Plasmodium falciparum (chloroquine sensitive 3D7 strain). As to the kind of experiment: microbe, parasite or virus in culture. Type of data set: cell-based. The settings on record: for EC50: read-out: Biological activity CE50 Antiplasmodial; for Index of Selectivity huRBC: IS = LC50 in huRBC/EC50 in P. falciparum. As to the method:
The effect of compounds on the growth of the parasites was assessed by quantification of the parasite DNA stained with ethidium bromide (EtBr). Briefly, unsynchronized cultures of P. falciparum were adjusted to a 1.5%–2% parasitemia and 5% hematocrit in RPMI medium supplemented with 10% human serum. Then, 500 µL of parasites and 500 µL of each concentration of compound were placed in each well of 24-well plates. Plates were incubated for 72 h at 37 °C in a N2 (90%), CO2 (5%) and O2 (5%) atmosphere. […] After 72 h of exposure, DNA from parasites was extracted and purified using a lysis solution containing proteinase K. Each compound and each concentration were assessed in triplicate in at least two separate experiments.
Results are expressed as the median effective concentration (EC50) calculated by probit analysis using the % of inhibition: % parasite growth = (FAU Exposed parasites)/(FAU unexposed parasites) × 100(2)
as §3

Data set [4] is described as follows: in vitro. To be noted: human. As to the method: Primary cultures of human monocyte-derived macrophages (huMDMs) and human red blood cells (huRBCs) obtained from healthy donors after signing the informed consent were also used. The huMDM were obtained from peripheral mononuclear cells isolated by Ficoll-Hypaque 1077 gradient centrifugation. huMDMs were suspended at 3 × 10^5 cells/mL in RPMI 1640 medium supplemented with 10% autologous serum. One mL of suspension was dispensed into each well of 24-well chamber slides and incubated at 37 °C, 5% of CO2 for 72 h, according to a previously described methodology. On the other hand, huRBCs were obtained from sodium citrate anticoagulated whole blood. After centrifugation at 1,500 rpm for 10 min, the RBCs were recovered and suspended in RPMI 1640 medium at 50% hematocrit and stored at 4 °C until use.
as §1, §2

Setting [5] is: African green monkey (Cercopithecus aethiops).
The mark [6] stands for this setting: L. panamensis intracellular amastigotes in huMDM, 72 h exposure, ± SD, n = 6 replicates.
[7] abbreviates: Plasmodium falciparum, 3D7, 72 h, total forms of P. falciparum 3D7, unsynchronized culture, 72 h, ± SD, n = 6 replicates.
Setting [8] is: total forms of P. falciparum 3D7, unsynchronized culture, 72 h, ± SD, n = 6 replicates.

Experimental findings from article PMC6271323, “Preparation of Rotenone Derivatives and in Vitro Analysis of Their Antimalarial, Antileishmanial and Selective Cytotoxic Activities” (Molecules, 2014) are described below.

Read-outs that look alike come from different tables or passages of the source.

Take `C[C@@H]1[C@H](O)[C@@H](C)/C=C/C=C/C=C/C=C/C=C/C=C/C=C/[C@H](O[C@@H]2O[C@H](C)[C@@H](O)[C@H](N)[C@@H]2O)C[C@@H]2O[C@](O)(C[C@@H](O)C[C@@H](O)[C@H](O)CC[C@@H](O)C[C@@H](O)CC(=O)O[C@H]1C)C[C@H](O)[C@H]2C(=O)O` [Amphotericin B, reference compound]: the CC50 in the data set “in vitro [1]” (setting [5]) came to 15.6 ± 0.4 µM; in “in vitro [1]” (mouse), 54.5 ± 0.3 µM. The “Index of Selectivity huMDM” value in data set [2] turned out to be 143.0. Besides, the EC50 in data set [2] (setting [6]) amounted to 0.8 ± 0.2 µM.

Turning to `CCN(CC)CCCC(C)Nc1ccnc2cc(Cl)ccc12` (stereo not drawn) [Chloroquine, reference compound], in data set [3] (setting [7]), the EC50 is 0.06 ± 0.03 µM.

With `C=C(C)[C@H]1Cc2c(ccc3c2O[C@@H]2COc4cc(OC)c(OC)cc4[C@@H]2C3=O)O1` [Compound 1, rotenone], the CC50 in the data set “in vitro [1]” (setting [5]) was over 508 µM; in “in vitro [1]” (mouse), 10.2 µM. For the same compound, the CC50 at 2 h in “in vitro [4]” is over 508 µM. Besides, in data set [2], the “Index of Selectivity huMDM” value stood at 3.1. Besides, the EC50 in data set [2] (72 h) came out at 127 ± 17.3 µM; in data set [3] (Plasmodium falciparum, 3D7, 72 h) it was 19 ± 8.6 µM. The “activity against intracellular amastigotes (in words)” value in data set [2] (antileishmanial activity, L. panamensis) was “inactive”. Moreover, the “Index of Selectivity huRBC” value in data set [3] (listed as 1 (Rotenone)) is over 26.1.

In the case of `COc1cc2c(cc1OC)[C@@H]1C(=O)c3ccc4c(c3O[C@@H]1CO2)C[C@H](C1(C)CO1)O4` (stereo partly drawn) [Compound 2, 6aS,12aS-8,9-Dimethoxy-2-(2-methyloxiran-2-yl)-1,2,12,12a-tetrahydrochromeno[3,4-b]furo[2,3-h]-chromen-6(6aH)-one], the CC50 was 81.3 ± 16.9 µM in the data set “in vitro [1]” (setting [5]), 29 ± 3 µM in the data set “in vitro [1]” (mouse) and over 505 µM in “in vitro [4]”. Moreover, the “Index of Selectivity huMDM” value in data set [2] is listed as under 3.6. Further, the EC50 in data set [2] (setting [6]) was over 126 µM; in data set [3] (setting [7]), under 50 µM; in data set [3] (setting [8]), 41.7 ± 12.6 µM. For the same compound, the “Index of Selectivity huRBC” value in data set [3] is over 12.1.

For `C=C(C)[C@H]1Cc2c(ccc3c2O[C@@H]2COc4cc(OC)c(OC)cc4[C@@H]2C3O)O1` (stereo partly drawn) [Compound 3, 2R,6aR,12aS-8,9-Dimethoxy-2-(prop-1-en-2-yl)-1,2,6,6a,12,12a-hexahydrochromeno[3,4-b]furo[2,3-h]chromen-6-ol], the CC50 was 284 ± 23.6 µM in the data set “in vitro [1]” (setting [5]), 17 ± 3.4 µM in “in vitro [1]” (mouse) and over 523 µM in “in vitro [4]”. Besides, in data set [2], the “Index of Selectivity huMDM” value is under 3.9. The values for the EC50 in data set [2] (setting [6]), in data set [3] (setting [7]) and in data set [3] (setting [8]) were over 130 µM, under 50 µM and 53.9 ± 2.4 µM, respectively. Further, the “Index of Selectivity huRBC” value in data set [3] is reported as over 9.6.

For the compound `COc1cc2c(cc1OC)C1Cc3ccc4c(c3O[C@@H]1CO2)C[C@H](C(C)C)O4` (stereo partly drawn) [Compound 7, 2R,6aS,12aS-2-Isopropyl-8,9-dimethoxy-1,2,6,6a,12,12a-hexahydrochromeno-[3,4-b]furo[2,3-h]-chromene], the CC50 was over 476 µM in the data set “in vitro [1]” (setting [5]), 1.67 ± 0.9 µM in “in vitro [1]” (mouse) and over 476 µM in the data set “in vitro [4]”. Moreover, the “Index of Selectivity huMDM” value in data set [2] is reported as under 4.0. The EC50 was over 119 µM in data set [2] (setting [6]), under 50 µM in data set [3] (setting [7]) and 47.4 ± 0.2 µM in data set [3] (setting [8]). Also, the “Index of Selectivity huRBC” value in data set [3] turned out to be 8.7.

Consider `COc1cccc2c1C(=O)c1c(O)c3c(c(O)c1C2=O)C[C@@](O)(C(=O)CO)C[C@@H]3O[C@H]1C[C@H](N)[C@H](O)[C@H](C)O1` [Doxorubicin, reference compound], for which the values for the CC50 in the data set “in vitro [1]” (setting [5]) and in “in vitro [1]” (mouse) were 9.36 ± 2.2 µM and 2.6 ± 0.7 µM, respectively.
